Paper PMC9848300, “Discovery of novel enasidenib analogues targeting inhibition of mutant isocitrate dehydrogenase 2 as antileukaemic agents” (Journal of Enzyme Inhibition and Medicinal Chemistry, 2023)

Key:
786-0 = assay: NCI 60 antitumor screening (single dose / five doses); format: cell-based; details: Homo sapiens, 786-0, 786-0 (renal cancer), single dose 10 μM; read-out: Growth inhibition percentage (GI %)
ACHN = assay: as above; format: cell-based; details: Homo sapiens; ACHN (renal cancer), single dose 10 μM; read-out: Growth inhibition percentage (GI %)
HL-60(TB) = assay: as above; format: cell-based; details: Homo sapiens; HL-60(TB) (leukaemia), single dose 10 μM; read-out: Growth inhibition percentage (GI %)
LOX IMVI = assay: as above; format: cell-based; details: Homo sapiens; LOX IMVI (melanoma), single dose 10 μM; read-out: Growth inhibition percentage (GI %)
COLO 205 = assay: as above; format: cell-based; details: Homo sapiens; COLO 205 (colon cancer), single dose 10 μM; read-out: Growth inhibition percentage (GI %)
RPMI-8226 = assay: as above; format: cell-based; details: Homo sapiens; RPMI-8226 (leukaemia), single dose 10 μM; read-out: Growth inhibition percentage (GI %)
HT29 = assay: as above; format: cell-based, human; details: Homo sapiens, HT-29; HT29 (colon cancer), single dose 10 μM; read-out: Growth inhibition percentage (GI %)
K-562 = assay: as above; format: cell-based; details: Homo sapiens, K562; K-562 (leukaemia), single dose 10 μM; read-out: Growth inhibition percentage (GI %)
HCT-15 = assay: as above; format: cell-based; details: Homo sapiens; HCT-15 (colon cancer), single dose 10 μM; read-out: Growth inhibition percentage (GI %)
SW-620 = assay: as above; format: cell-based, human; details: Homo sapiens; SW-620 (colon cancer), single dose 10 μM; read-out: Growth inhibition percentage (GI %)
UACC-62 = assay: as above; format: cell-based; details: Homo sapiens; UACC-62 (melanoma), single dose 10 μM; read-out: Growth inhibition percentage (GI %)
IGROV1 = assay: as above; format: cell-based; details: Homo sapiens, IGROV-1; IGROV1 (ovarian cancer), single dose 10 μM; read-out: Growth inhibition percentage (GI %)
UACC-257 = assay: as above; format: cell-based; details: Homo sapiens; UACC-257 (melanoma), single dose 10 μM; read-out: Growth inhibition percentage (GI %)
BT-549 = assay: as above; format: cell-based; details: Homo sapiens; BT-549 (breast cancer), single dose 10 μM; read-out: Growth inhibition percentage (GI %)
SF-295 = assay: as above; format: cell-based; details: Homo sapiens; SF-295 (CNS cancer), single dose 10 μM; read-out: Growth inhibition percentage (GI %)
MDA-MB-231/ATCC = assay: as above; format: cell-based; details: Homo sapiens; MDA-MB-231/ATCC (breast cancer), single dose 10 μM; read-out: Growth inhibition percentage (GI %)
SK-MEL-5 = assay: as above; format: cell-based; details: Homo sapiens; SK-MEL-5 (melanoma), single dose 10 μM; read-out: Growth inhibition percentage (GI %)
OVCAR-8 = assay: NCI 60 antitumor screening (single dose); format: cell-based; details: Homo sapiens; OVCAR-8 (ovarian cancer), single dose 10 μM; read-out: Growth inhibition percentage (GI %)
Procedure, shortened: (§1)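 GI% derived as 100 − G% from triplicate growth measurements in the NCI 60 human tumour panel, compound 10 μM, single dose, per NCI protocol.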

NCI-H460 = assay: NCI 60 antitumor screening (single dose); format: cell-based; details: Homo sapiens; NCI-H460 (non-small cell lung cancer), single dose 10 μM; read-out: Growth inhibition percentage (GI %)
Procedure, shortened: (§2)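 Assessment used the first tier of the NCI 60 screen, one dose of 10 μM per compound. Triplicate experiments gave percent growth of treated cells. Inhibition was then derived as 100 − G%.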

HCC-2998 = assay: NCI 60 antitumor screening (single dose); format: cell-based; details: Homo sapiens; HCC-2998 (colon cancer), single dose 10 μM; read-out: Growth inhibition percentage (GI %)
Procedure, shortened: as §2

PC-3 = assay: NCI 60 antitumor screening (single dose); format: cell-based; details: Homo sapiens; PC-3 (prostate cancer), single dose 10 μM; read-out: Growth inhibition percentage (GI %)
Procedure, shortened: as §1

TK-10 = assay: NCI 60 antitumor screening (single dose); format: cell-based; details: Homo sapiens; TK-10 (renal cancer), single dose 10 μM; read-out: Growth inhibition percentage (GI %)
Procedure, shortened: as §1

HOP-62 = assay: NCI 60 antitumor screening (single dose); format: cell-based; details: Homo sapiens; HOP-62 (non-small cell lung cancer), single dose 10 μM; read-out: Growth inhibition percentage (GI %)
Procedure, shortened: as §2

EKVX = assay: NCI 60 antitumor screening (single dose / five doses); format: cell-based; details: Homo sapiens; EKVX (non-small cell lung cancer), single dose 10 μM; read-out: Growth inhibition percentage (GI %)
RXF 393 = assay: as above; format: cell-based; details: Homo sapiens; RXF 393 (renal cancer), single dose 10 μM; read-out: Growth inhibition percentage (GI %)
UO-31 = assay: as above; format: cell-based; details: Homo sapiens; UO-31 (renal cancer), single dose 10 μM; read-out: Growth inhibition percentage (GI %)
MOLT-4 = assay: as above; format: cell-based; details: Homo sapiens; MOLT-4 (leukaemia), single dose 10 μM; read-out: Growth inhibition percentage (GI %)
MDA-MB-468 = assay: as above; format: cell-based; details: Homo sapiens; MDA-MB-468 (breast cancer), single dose 10 μM; read-out: Growth inhibition percentage (GI %)

In the case of `C(=N\Nc1nc(N/N=C/c2ccc3c(c2)OCO3)nc(N2CCOCC2)n1)/c1ccc2c(c1)OCO2` [compound 6k, 2,4-Bis[(E)-2-(2H-1,3-Benzodioxol-5-ylmethylidene)hydrazin-1-yl]-6-(morpholin-4-yl)-1,3,5-triazine], the inhibition at 10 µM (786-0) is reported as 36.6%, the inhibition at 10 µM (ACHN) is reported as 24.7% and the inhibition at 10 µM (HL-60(TB)) is reported as 61.1%. The inhibition at 10 µM (LOX IMVI) was 30.1%, the inhibition at 10 µM (COLO 205) was 40.7% and the inhibition at 10 µM (RPMI-8226) was 40.3%. For the same molecule, the inhibition at 10 µM (HT29) was 51.7%, the inhibition at 10 µM (K-562) was 45.6% and the inhibition at 10 µM (HCT-15) was 41.5%. It also gave an inhibition at 10 µM (SW-620) of 29%, an inhibition at 10 µM (UACC-62) of -4.28% and an inhibition at 10 µM (IGROV1) of 24.3%. It also gave an inhibition at 10 µM (UACC-257) of -2.23%, an inhibition at 10 µM (BT-549) of 5.57% and an inhibition at 10 µM (SF-295) of 9.09%. The inhibition at 10 µM (MDA-MB-231/ATCC) was 0.11%, the inhibition at 10 µM (SK-MEL-5) was 14% and the inhibition at 10 µM (OVCAR-8) was 26%. It also gave an inhibition at 10 µM (NCI-H460) of 12.2%, an inhibition at 10 µM (HCC-2998) of 8.26% and an inhibition at 10 µM (PC-3) of 30.1%. For the same molecule, the inhibition at 10 µM (TK-10) was -3.24%, the inhibition at 10 µM (HOP-62) was 13.6% and the inhibition at 10 µM (EKVX) was 4.47%. It also gave an inhibition at 10 µM (RXF 393) of 30.5%, an inhibition at 10 µM (UO-31) of 46.4% and an inhibition at 10 µM (MOLT-4) of 47.3%. For the same molecule, the inhibition at 10 µM (MDA-MB-468) was 32.1%.

In the case of `Oc1ccc(/C=N/Nc2nc(N/N=C/c3ccc(O)c(O)c3)nc(N3CCOCC3)n2)cc1O` [compound 6j, 4-[(1e)-(2-{4-[(E)-2-[(3,4-Dihydroxyphenyl)methylidene]hydrazin-1-yl]-6-(morpholin-4-yl)-1,3,5-triazin-2-yl}hydrazin-1-ylidene)methyl]benzene-1,2-diol], the inhibition at 10 µM (786-0) is reported as -3.75%, the inhibition at 10 µM (ACHN) is reported as -1.32% and the inhibition at 10 µM (HL-60(TB)) is reported as 0.38%. It also gave an inhibition at 10 µM (LOX IMVI) of -5.85%, an inhibition at 10 µM (COLO 205) of -7.11% and an inhibition at 10 µM (RPMI-8226) of -3.09%. For the same molecule, the inhibition at 10 µM (HT29) was -12%, the inhibition at 10 µM (K-562) was -5.6% and the inhibition at 10 µM (HCT-15) was -2.93%. The inhibition at 10 µM (SW-620) was -3.6%, the inhibition at 10 µM (UACC-62) was 2.19% and the inhibition at 10 µM (IGROV1) was -6.08%. It also gave an inhibition at 10 µM (UACC-257) of -3.12%, an inhibition at 10 µM (BT-549) of -9.12% and an inhibition at 10 µM (SF-295) of -3.97%. For the same molecule, the inhibition at 10 µM (MDA-MB-231/ATCC) was 1.27%, the inhibition at 10 µM (SK-MEL-5) was 2.65% and the inhibition at 10 µM (OVCAR-8) was -0.99%. The inhibition at 10 µM (NCI-H460) was -7.99%, the inhibition at 10 µM (HCC-2998) was -6.4% and the inhibition at 10 µM (PC-3) was -5.8%. For the same molecule, the inhibition at 10 µM (TK-10) was -9.62%, the inhibition at 10 µM (HOP-62) was -5.33% and the inhibition at 10 µM (EKVX) was 5.31%. For the same molecule, the inhibition at 10 µM (RXF 393) was -20.4%, the inhibition at 10 µM (UO-31) was 15.4% and the inhibition at 10 µM (MOLT-4) was -1.68%. It also gave an inhibition at 10 µM (MDA-MB-468) of 6.49%.
